From article PMC5218480 (PLoS ONE, 2017)

Test system: MV-4-11 cells
Assay: Gene expression microarray analysis (Affymetrix PrimeView) and GSEA
Type: cell-based, human
Set-up: RFU PODN (11730768_x_at) / Fold change /veh PODN (11730768_x_at) / RFU LINC00158 (11744669_a_at) / Fold change /veh LINC00158 (11744669_a_at) / RFU DUSP10 (11751237_a_at) / Fold change /veh DUSP10 (11751237_a_at) / RFU ID3 (11757404_x_at) / Fold change /veh ID3 (11757404_x_at) / RFU PLEKHG5 (11737974_s_at) / Fold change /veh PLEKHG5 (11737974_s_at) / RFU LRRC4B (11730491_at) / Fold change /veh LRRC4B (11730491_at) / RFU GIMAP4 (11747438_a_at) / Fold change /veh GIMAP4 (11747438_a_at) / RFU KRT8 (11758183_x_at) / Fold change /veh KRT8 (11758183_x_at) / RFU CNN1 (11734310_a_at) / Fold change /veh CNN1 (11734310_a_at) / RFU VPS37D (11726825_at) / Fold change /veh VPS37D (11726825_at) / RFU C10orf10 (11716522_x_at) / Fold change /veh C10orf10 (11716522_x_at) / RFU KIR2DL2 /// KIR2DL4 /// KIR2DL5A /// KIR2DL5B /// KIR2DS1 /// KIR2DS2 /// KIR2DS3 /// KIR2DS4 /// KIR3DL3 /// KIR3DL3 /// KIR3DS1 (11738374_at) / Fold change /veh KIR2DL2 /// KIR2DL4 /// KIR2DL5A /// KIR2DL5B /// KIR2DS1 /// KIR2DS2 /// KIR2DS3 /// KIR2DS4 /// KIR3DL3 /// KIR3DL3 /// KIR3DS1 (11738374_at) / RFU C1QL1 (11718748_at) / Fold change /veh C1QL1 (11718748_at) / RFU TMPRSS4 (11747572_a_at) / Fold change /veh TMPRSS4 (11747572_a_at) / RFU HAMP (11756126_x_at) / Fold change /veh HAMP (11756126_x_at) / RFU RNFT2 (11725882_a_at) / Fold change /veh RNFT2 (11725882_a_at) / RFU NR4A2 (11747474_a_at) / Fold change /veh NR4A2 (11747474_a_at) / RFU ABCC12 (11746883_a_at) / Fold change /veh ABCC12 (11746883_a_at) / RFU TMEM136 (11760407_x_at) / Fold change /veh TMEM136 (11760407_x_at) / RFU CLDN22 /// WWC2 (11732394_at) / Fold change /veh CLDN22 /// WWC2 (11732394_at) / RFU HLA-DPB1 (11760878_x_at) / Fold change /veh HLA-DPB1 (11760878_x_at) / RFU SPINT1 (11716480_a_at) / Fold change /veh SPINT1 (11716480_a_at) / RFU GAP43 (11754022_s_at) / Fold change /veh GAP43 (11754022_s_at) / RFU A4GNT (11735810_at) / Fold change /veh A4GNT (11735810_at) / RFU PRB3 (11715151_x_at) / Fold change /veh PRB3 (11715151_x_at) / RFU TUBB4B (11761932_at) / Fold change /veh TUBB4B (11761932_at) / RFU CAPN14 (11732068_a_at) / Fold change /veh CAPN14 (11732068_a_at) / RFU TMCC2 (11721928_a_at) / Fold change /veh TMCC2 (11721928_a_at) / RFU IRGQ (11745062_a_at) / Fold change /veh IRGQ (11745062_a_at) / RFU FAM174B (11720279_a_at) / Fold change /veh FAM174B (11720279_a_at) / RFU TMPRSS4 (11748680_a_at) / Fold change /veh TMPRSS4 (11748680_a_at) / RFU FAM212B (11763350_a_at) / Fold change /veh FAM212B (11763350_a_at) / RFU PLEKHG5 (11743358_a_at) / Fold change /veh PLEKHG5 (11743358_a_at) / RFU ZSCAN30 (11745921_a_at) / Fold change /veh ZSCAN30 (11745921_a_at) / RFU CMKLR1 (11741424_a_at) / Fold change /veh CMKLR1 (11741424_a_at) / RFU LOC101060620 /// MAPK8IP1 (11723275_at) / Fold change /veh LOC101060620 /// MAPK8IP1 (11723275_at) / RFU SPTSSB (11747773_x_at) / Fold change /veh SPTSSB (11747773_x_at) / RFU PRSS12 (11739890_at) / Fold change /veh PRSS12 (11739890_at) / RFU BIN1 (11741810_x_at) / Fold change /veh BIN1 (11741810_x_at) / RFU WNT11 (11732464_a_at) / Fold change /veh WNT11 (11732464_a_at) / RFU C10orf10 (11716521_a_at) / Fold change /veh C10orf10 (11716521_a_at) / RFU C5orf56 (11738089_at) / Fold change /veh C5orf56 (11738089_at) / RFU CYB561 (11721691_x_at) / Fold change /veh CYB561 (11721691_x_at) / RFU ANKRD19P (11752326_a_at) / Fold change /veh ANKRD19P (11752326_a_at) / RFU OR2T12 /// OR2T33 /// OR2T8 (11738714_s_at) / Fold change /veh OR2T12 /// OR2T33 /// OR2T8 (11738714_s_at) / RFU VCAN (11748164_a_at) / Fold change /veh VCAN (11748164_a_at) / RFU JSRP1 (11732532_at) / Fold change /veh JSRP1 (11732532_at) / RFU KRTAP10-11 (11738290_x_at) / Fold change /veh KRTAP10-11 (11738290_x_at) / RFU MYO3A (11730013_a_at) / Fold change /veh MYO3A (11730013_a_at) / RFU EBF3 (11725865_a_at) / Fold change /veh EBF3 (11725865_a_at) / RFU CAMK2N1 (11719241_x_at) / Fold change /veh CAMK2N1 (11719241_x_at) / RFU C5orf56 (11738088_a_at) / Fold change /veh C5orf56 (11738088_a_at) / RFU OLFML3 (11715873_a_at) / Fold change /veh OLFML3 (11715873_a_at) / RFU LOC100653217 /// NTM (11731650_a_at) / Fold change /veh LOC100653217 /// NTM (11731650_a_at) / RFU MAPK11 (11762145_a_at) / Fold change /veh MAPK11 (11762145_a_at) / RFU FIZ1 (11724087_x_at) / Fold change /veh FIZ1 (11724087_x_at) / RFU OASL (11726364_x_at) / Fold change /veh OASL (11726364_x_at) / RFU SOX15 (11748057_x_at) / Fold change /veh SOX15 (11748057_x_at) / RFU CD79A (11719716_a_at) / Fold change /veh CD79A (11719716_a_at) / RFU HIST1H1D (11736915_at) / Fold change /veh HIST1H1D (11736915_at) / RFU CASKIN2 (11723855_a_at) / Fold change /veh CASKIN2 (11723855_a_at) / RFU LOC730098 (11760151_x_at) / Fold change /veh LOC730098 (11760151_x_at) / RFU OR4N2 (11742367_at) / Fold change /veh OR4N2 (11742367_at) / RFU PRRT2 (11749266_a_at) / Fold change /veh PRRT2 (11749266_a_at) / RFU SNX32 (11753110_a_at) / Fold change /veh SNX32 (11753110_a_at) / RFU CDHR5 (11726645_a_at) / Fold change /veh CDHR5 (11726645_a_at) / RFU RCAN1 (11760418_a_at) / Fold change /veh RCAN1 (11760418_a_at) / RFU FAM167A (11723789_a_at) / Fold change /veh FAM167A (11723789_a_at) / RFU FAM26E (11764081_at) / Fold change /veh FAM26E (11764081_at) / RFU ISYNA1 (11749810_s_at) / Fold change /veh ISYNA1 (11749810_s_at) / RFU ACY1 (11761880_at) / Fold change /veh ACY1 (11761880_at) / RFU 11764098_at / Fold change /veh 11764098_at / RFU SAMD14 (11745864_x_at) / Fold change /veh SAMD14 (11745864_x_at) / RFU NPB (11741838_a_at) / Fold change /veh NPB (11741838_a_at) / RFU TMPRSS6 (11731388_a_at) / Fold change /veh TMPRSS6 (11731388_a_at) / RFU KRTAP10-2 (11738614_at) / Fold change /veh KRTAP10-2 (11738614_at) / RFU ARHGAP8 /// PRR5-ARHGAP8 (11727945_x_at) / Fold change /veh ARHGAP8 /// PRR5-ARHGAP8 (11727945_x_at) / RFU KRTAP5-7 /// NADSYN1 (11734609_at) / Fold change /veh KRTAP5-7 /// NADSYN1 (11734609_at) / RFU RASL12 (11751679_a_at) / Fold change /veh RASL12 (11751679_a_at) / RFU CDKN2B (11736163_a_at) / Fold change /veh CDKN2B (11736163_a_at) / RFU PRF1 (11729649_at) / Fold change /veh PRF1 (11729649_at) / RFU, ZNF638 /// ZNF638-IT1 / Fold change vs veh, ZNF638 /// ZNF638-IT1 / RFU, PANK3 / Fold change vs veh, PANK3 / RFU, SH3YL1 / Fold change vs veh, SH3YL1 / RFU, ZEB2 / Fold change vs veh, ZEB2 / RFU, NRIP1 / Fold change vs veh, NRIP1 / RFU, PTTG1IP / Fold change vs veh, PTTG1IP / RFU, CAPN2 / Fold change vs veh, CAPN2 / RFU, MED14 / Fold change vs veh, MED14 / RFU, SNORA58 / Fold change vs veh, SNORA58 / RFU, C1orf63 / Fold change vs veh, C1orf63 / RFU, LRRFIP1 / Fold change vs veh, LRRFIP1 / RFU, NDUFAF7 / Fold change vs veh, NDUFAF7 / RFU, SLC12A2 / Fold change vs veh, SLC12A2 / RFU, IBTK / Fold change vs veh, IBTK / RFU, ESF1 / Fold change vs veh, ESF1 / Fold change vs veh, TMEM50B / RFU, TAOK1 / Fold change vs veh, TAOK1 / RFU, ACBD3 / Fold change vs veh, ACBD3 / RFU, TMA16 / Fold change vs veh, TMA16 / RFU, RWDD3 / Fold change vs veh, RWDD3 / RFU, BCAT1 / Fold change vs veh, BCAT1 / RFU, EDEM3 / Fold change vs veh, EDEM3 / RFU, TMEM33 / Fold change vs veh, TMEM33 / RFU, WDR75 / Fold change vs veh, WDR75 / RFU, AHCTF1 / Fold change vs veh, AHCTF1 / RFU, TFRC / Fold change vs veh, TFRC / RFU, ZDHHC17 / Fold change vs veh, ZDHHC17 / RFU, NOM1 / Fold change vs veh, NOM1 / RFU, ARL8B / Fold change vs veh, ARL8B / RFU, ZBTB11 / Fold change vs veh, ZBTB11 / RFU, TAMM41 / Fold change vs veh, TAMM41 / RFU, KIAA1704 /// LOC100996395 / Fold change vs veh, KIAA1704 /// LOC100996395 / RFU, ING1 / Fold change vs veh, ING1 / RFU, TRMT61B / Fold change vs veh, TRMT61B / RFU, FUBP3 / Fold change vs veh, FUBP3 / RFU, TP53 / Fold change vs veh, TP53 / RFU, TNKS2 / Fold change vs veh, TNKS2 / RFU, ZFP14 / Fold change vs veh, ZFP14 / RFU, ACTR2 / Fold change vs veh, ACTR2 / RFU, PPP3R1 / Fold change vs veh, PPP3R1 / RFU, PIK3R1 / Fold change vs veh, PIK3R1 / RFU, HNRNPA1 / Fold change vs veh, HNRNPA1 / RFU, RNF170 / Fold change vs veh, RNF170 / RFU, ZNF28 / Fold change vs veh, ZNF28 / RFU, RNGTT / Fold change vs veh, RNGTT / RFU, OGT / Fold change vs veh, OGT / RFU, BRD1 / Fold change vs veh, BRD1 / RFU, MARS / Fold change vs veh, MARS / RFU, ZNF655 / Fold change vs veh, ZNF655 / RFU, FAHD1 / Fold change vs veh, FAHD1 / RFU, BDP1 / Fold change vs veh, BDP1 / RFU, LRRCC1 / Fold change vs veh, LRRCC1 / RFU, ARID1A / Fold change vs veh, ARID1A / RFU, ZNF146 / Fold change vs veh, ZNF146 / RFU, ZNF330 / Fold change vs veh, ZNF330 / RFU, GPN3 / Fold change vs veh, GPN3 / RFU, C9orf123 / Fold change vs veh, C9orf123 / RFU, N4BP2L2 / Fold change vs veh, N4BP2L2 / RFU, ARFIP1 / Fold change vs veh, ARFIP1 / RFU, FAM179B / Fold change vs veh, FAM179B / RFU, BCL10 / Fold change vs veh, BCL10 / RFU, UHRF1BP1L / Fold change vs veh, UHRF1BP1L / RFU, BET1 / Fold change vs veh, BET1 / RFU, CNOT2 / Fold change vs veh, CNOT2 / RFU, ZNF268 / Fold change vs veh, ZNF268 / Fold change vs veh, ZNF507 / RFU, DGCR2 / Fold change vs veh, DGCR2 / RFU, WDSUB1 / Fold change vs veh, WDSUB1 / Fold change vs veh, HSP90B1 /// MIR3652 / RFU, ADSS / Fold change vs veh, ADSS / RFU, GK / Fold change vs veh, GK / RFU, ZNF148 / Fold change vs veh, ZNF148 / RFU, TAF9 / Fold change vs veh, TAF9 / RFU, SLC1A5 / Fold change vs veh, SLC1A5 / RFU, SLMO2 / Fold change vs veh, SLMO2 / RFU, ABCC4 / Fold change vs veh, ABCC4 / RFU, LOC101060439 /// RAP1B / Fold change vs veh, LOC101060439 /// RAP1B / RFU, RFX7 / Fold change vs veh, RFX7 / RFU, GTPBP10 / Fold change vs veh, GTPBP10 / RFU, CNEP1R1 / Fold change vs veh, CNEP1R1 / RFU, BIVM-ERCC5 /// ERCC5 / Fold change vs veh, BIVM-ERCC5 /// ERCC5 / RFU, ILF3 / Fold change vs veh, ILF3 / RFU 11762660_at / Fold change /veh 11762660_at / RFU VCAN (11757783_s_at) / Fold change /veh VCAN (11757783_s_at) / RFU DDX43 (11728927_at) / Fold change /veh DDX43 (11728927_at) / RFU KRT8 (11758188_x_at) / Fold change /veh KRT8 (11758188_x_at) / RFU NKD1 (11759106_at) / Fold change /veh NKD1 (11759106_at) / RFU SRD5A1 (11742802_a_at) / Fold change /veh SRD5A1 (11742802_a_at) / RFU TPSAB1 /// TPSB2 (11721975_s_at) / Fold change /veh TPSAB1 /// TPSB2 (11721975_s_at) / RFU GSTM3 (11746129_a_at) / Fold change /veh GSTM3 (11746129_a_at) / RFU IL23R (11737362_x_at) / Fold change /veh IL23R (11737362_x_at) / RFU TMEM51 (11727254_a_at) / Fold change /veh TMEM51 (11727254_a_at) / RFU PIWIL2 (11732686_x_at) / Fold change /veh PIWIL2 (11732686_x_at) / RFU ORM1 (11744905_x_at) / Fold change /veh ORM1 (11744905_x_at) / RFU CCDC152 (11743942_at) / Fold change /veh CCDC152 (11743942_at) / RFU ECM1 (11717891_a_at) / Fold change /veh ECM1 (11717891_a_at) / RFU IL23R (11748794_a_at) / Fold change /veh IL23R (11748794_a_at) / RFU TNFAIP8L3 (11732012_x_at) / Fold change /veh TNFAIP8L3 (11732012_x_at) / RFU MBOAT4 (11741988_at) / Fold change /veh MBOAT4 (11741988_at) / RFU 11764193_at / Fold change /veh 11764193_at / RFU TMEM53 (11763286_at) / Fold change /veh TMEM53 (11763286_at) / RFU MAGEB2 (11727129_at) / Fold change /veh MAGEB2 (11727129_at) / RFU TMEM200A (11744735_a_at) / Fold change /veh TMEM200A (11744735_a_at) / RFU CCDC152 (11751479_a_at) / Fold change /veh CCDC152 (11751479_a_at) / RFU FAM211A (11726209_a_at) / Fold change /veh FAM211A (11726209_a_at) / RFU RGS16 (11746705_a_at) / Fold change /veh RGS16 (11746705_a_at) / RFU VCAN (11755009_s_at) / Fold change /veh VCAN (11755009_s_at) / RFU RHOB (11743442_s_at) / Fold change /veh RHOB (11743442_s_at) / RFU RGS16 (11720943_a_at) / Fold change /veh RGS16 (11720943_a_at) / RFU RGS16 (11720944_at) / Fold change /veh RGS16 (11720944_at) / RFU, VPS4B / Fold change vs veh, VPS4B / RFU, CREB1 / Fold change vs veh, CREB1 / RFU, DNAJC13 / Fold change vs veh, DNAJC13 / RFU, GNAQ / Fold change vs veh, GNAQ / RFU, CDK5R1 / Fold change vs veh, CDK5R1 / RFU, ZRANB3 / Fold change vs veh, ZRANB3 / RFU, CUL4A / Fold change vs veh, CUL4A / RFU, CCNY / Fold change vs veh, CCNY / RFU, UFL1 / Fold change vs veh, UFL1 / RFU, COG3 / Fold change vs veh, COG3 / RFU, DIAPH2 / Fold change vs veh, DIAPH2 / RFU, SKA2 / Fold change vs veh, SKA2 / RFU, AFF3 / Fold change vs veh, AFF3 / RFU, LMF1 / Fold change vs veh, LMF1 / RFU, IPO11 / Fold change vs veh, IPO11 / RFU, DFFB / Fold change vs veh, DFFB / RFU, FOXP1 / Fold change vs veh, FOXP1 / RFU, CARD8 / Fold change vs veh, CARD8 / RFU, STRN3 / Fold change vs veh, STRN3 / RFU, ADK / Fold change vs veh, ADK / RFU, RASSF2 / Fold change vs veh, RASSF2 / RFU, WIPF1 / Fold change vs veh, WIPF1 / RFU, LARP1B / Fold change vs veh, LARP1B / RFU, RASA1 / Fold change vs veh, RASA1 / RFU, RB1 / Fold change vs veh, RB1 / RFU, PPFIA1 / Fold change vs veh, PPFIA1 / RFU, MAT2A / Fold change vs veh, MAT2A / RFU, CCT5 / Fold change vs veh, CCT5 / RFU, WDR92 / Fold change vs veh, WDR92 / RFU, CUX1 / Fold change vs veh, CUX1 / RFU, TTC7A / Fold change vs veh, TTC7A / RFU, TMEM135 / Fold change vs veh, TMEM135 / RFU, DEPTOR / Fold change vs veh, DEPTOR / RFU, CPM / Fold change vs veh, CPM / RFU, DNAJB6 / Fold change vs veh, DNAJB6 / RFU, CACNA2D3 / Fold change vs veh, CACNA2D3 / RFU, DTX4 / Fold change vs veh, DTX4 / RFU, TFCP2 / Fold change vs veh, TFCP2 / RFU, GMCL1 /// GMCL1P1 / Fold change vs veh, GMCL1 /// GMCL1P1 / RFU, AEBP2 / Fold change vs veh, AEBP2 / RFU, SNHG1 /// SNORD22 /// SNORD25 /// SNORD26 /// SNORD27 /// SNORD28 /// SNORD29 /// SNORD31 / Fold change vs veh, SNHG1 /// SNORD22 /// SNORD25 /// SNORD26 /// SNORD27 /// SNORD28 /// SNORD29 /// SNORD31 / Fold change (Aza/veh), C12orf56 (ProbeSet 11735607_a_at) / Fold change (ACY-1035/veh), C12orf56 (ProbeSet 11735607_a_at) / Fold change (Aza/veh), FGFR1OP (ProbeSet 11751329_s_at) / Fold change (ACY-1035/veh), FGFR1OP (ProbeSet 11751329_s_at) / Fold change (Aza/veh), VPS36 (ProbeSet 11739960_a_at) / Fold change (ACY-1035/veh), VPS36 (ProbeSet 11739960_a_at) / RFU SYPL1 (11715823_x_at) / Fold change /veh SYPL1 (11715823_x_at) / RFU IGFBP7 (11715501_s_at) / Fold change /veh IGFBP7 (11715501_s_at) / RFU REEP3 (11722064_at) / Fold change /veh REEP3 (11722064_at) / RFU IGLL1 (11728026_x_at) / Fold change /veh IGLL1 (11728026_x_at): dose or concentration left out as unconfirmed
Conditions: ProbeSet 11749645_x_at; LIST B

Q: Which “RFU, ZNF268” value does the source give for `Nc1ccc(-c2cccs2)cc1NC(=O)c1ccc2c(c1)cc(C1CC1)n2CCN1CCOCC1` [ACY-1035] here?
A: 141.54 RFU
